Reference: US20250101038A1, “COMPOUNDS” (priority 2021, published 2025)

Key:
5-HT2A receptor = target: T1, 5-HT2A receptor (Homo sapiens, UniProt P28223); experiment: FLIPR Ca2+ flux functional assay, 5-HT2A; format: cell-based; conditions: agonist activity, Ca2+ flux, HEK293 cells; for EC50: read-out: 5-HT2A EC50
T1 construct: host or cells: HEK293
Experimental: Activity at 5-HT2A, 5-HT2B and 5-HT2C receptors was determined using a FLIPR Ca^2+ flux assay at WuXi AppTec Co. Ltd. (Hong Kong) Discovery Biology Unit according to their standard protocols. Briefly, stably transfected cells expressing the receptor of interest (HEK293 for 5-HT2A and 5-HT2C; CHO-K1 for 5-HT2B) were grown and plated in a 384 well plate and incubated at 37° C. and 5% CO2 overnight. A 250 mM stock solution of probenecid in FLIPR calcium assay buffer (10 mL) was freshly prepared and combined with a fluorescent dye (Fluo-4 Direct) to give a final assay concentration of 2.5 mM. Reference compounds were 4-fold serially diluted and the screening compounds were 3-fold serially diluted in 100% DMSO for 10 points using Agilent Bravo, and 750 nL was added to a 384 well compound plate using Echo along with 30 μL assay buffer. The fluorescent dye was then added to the assay plate along with assay buffer to a final volume of […]. The cell plate was incubated for 50 min at 37° C. and 5% CO2 and placed into the FLIPR Tetra along with the compound plate. 10 μL of references and compounds were then transferred from the compound plate into the cell plate and the fluorescent signal was read.

5-HT2B receptor = target: T2, 5-HT2B receptor (Homo sapiens, UniProt P41595); experiment: cell-based; conditions: agonist activity, Ca2+ flux, CHO-K1 cells; for EC50: read-out: 5-HT2B EC50
T2 construct: host or cells: CHO-K1

5-HT2C receptor = target: T3, 5-HT2C receptor (Homo sapiens, UniProt P28335); experiment: cell-based; conditions: agonist activity, Ca2+ flux, HEK293 cells; for EC50: read-out: 5-HT2C EC50
T3 construct: host or cells: HEK293
T3 sequence (P28335 33-458): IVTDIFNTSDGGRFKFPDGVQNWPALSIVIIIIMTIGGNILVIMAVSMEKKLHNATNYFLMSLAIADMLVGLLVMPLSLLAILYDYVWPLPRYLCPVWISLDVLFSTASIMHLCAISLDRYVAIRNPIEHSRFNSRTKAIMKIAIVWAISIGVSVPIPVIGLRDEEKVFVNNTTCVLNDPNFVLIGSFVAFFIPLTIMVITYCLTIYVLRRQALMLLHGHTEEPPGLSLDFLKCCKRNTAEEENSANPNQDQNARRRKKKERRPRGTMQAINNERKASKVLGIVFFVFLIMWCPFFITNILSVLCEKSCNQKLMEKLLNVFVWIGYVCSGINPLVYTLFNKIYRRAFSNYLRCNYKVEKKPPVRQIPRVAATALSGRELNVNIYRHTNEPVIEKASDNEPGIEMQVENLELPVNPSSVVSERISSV

T2 sequence (P41595 whole entry): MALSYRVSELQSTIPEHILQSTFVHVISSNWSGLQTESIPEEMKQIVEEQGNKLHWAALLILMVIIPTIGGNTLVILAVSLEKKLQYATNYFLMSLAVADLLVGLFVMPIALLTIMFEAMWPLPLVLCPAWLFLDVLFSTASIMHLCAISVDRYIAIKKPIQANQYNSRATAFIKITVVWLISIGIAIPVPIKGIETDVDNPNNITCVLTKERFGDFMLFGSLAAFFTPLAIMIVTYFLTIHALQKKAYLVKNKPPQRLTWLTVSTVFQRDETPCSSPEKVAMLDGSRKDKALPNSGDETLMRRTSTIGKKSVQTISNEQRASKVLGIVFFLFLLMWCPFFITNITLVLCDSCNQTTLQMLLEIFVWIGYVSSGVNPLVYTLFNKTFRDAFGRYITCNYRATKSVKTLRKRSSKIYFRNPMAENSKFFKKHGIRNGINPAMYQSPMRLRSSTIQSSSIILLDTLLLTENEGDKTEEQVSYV
T1 sequence (P28223 whole entry): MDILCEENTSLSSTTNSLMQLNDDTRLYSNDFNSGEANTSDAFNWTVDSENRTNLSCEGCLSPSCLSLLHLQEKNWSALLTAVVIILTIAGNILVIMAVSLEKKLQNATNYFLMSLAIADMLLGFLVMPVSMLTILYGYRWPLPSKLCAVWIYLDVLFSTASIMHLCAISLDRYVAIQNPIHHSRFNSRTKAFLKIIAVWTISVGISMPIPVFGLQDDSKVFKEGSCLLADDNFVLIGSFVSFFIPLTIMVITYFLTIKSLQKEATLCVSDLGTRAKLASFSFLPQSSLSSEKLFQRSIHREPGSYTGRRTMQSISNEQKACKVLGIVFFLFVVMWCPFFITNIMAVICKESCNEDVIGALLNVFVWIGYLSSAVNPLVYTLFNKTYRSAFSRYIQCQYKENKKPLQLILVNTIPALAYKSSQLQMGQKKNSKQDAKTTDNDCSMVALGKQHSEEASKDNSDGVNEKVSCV

| SMILES | Emax (5-HT2A receptor) | EC50 (5-HT2A receptor) | Emax (5-HT2B receptor) | EC50 (5-HT2B receptor) | Emax (5-HT2C receptor) | EC50 (5-HT2C receptor) |
| --- | --- | --- | --- | --- | --- | --- |
| COc1cc(C)c2[nH]cc(CCN(C(C)C)C(C)C)c2c1 [Example P-58, N-isopropyl-N-(2-(5-methoxy-7-methyl-1H-indol-3-yl)ethyl)propan-2-amine] | 84% | 475 nM | 42.8% | 604 nM | 85.8% | 1700 nM |
| CCN(C)CCc1c[nH]c2ccc(C)c(OC)c12 [Example P-59, N-ethyl-2-(4-methoxy-5-methyl-1H-indol-3-yl)-N-methylethan-1-amine] | 78% | 34.6 nM | 68.1% | 4710 nM | 90.5% | 43.8 nM |
| COc1c(C)ccc2[nH]cc(CCN(C)C(C)C)c12 [Example P-60, N-(2-(4-methoxy-5-methyl-1H-indol-3-yl)ethyl)-N-methylpropan-2-amine] | 66.3% | 77.6 nM | 71% | 768 nM | 72.2% | 198 nM |
| CCN(CC)CCc1c[nH]c2ccc(C)c(OC)c12 [Example P-61, N, N-diethyl-2-(4-methoxy-5-methyl-1H-indol-3-yl)ethan-1-amine] | 67.7% | 321 nM | 46.3% | > 10000 nM | 75.8% | 444 nM |
| CCN(CCc1c[nH]c2ccc(C)c(OC)c12)C(C)C [Example P-62, N-ethyl-N-(2-(4-methoxy-5-methyl-1H-indol-3-yl)ethyl)propan-2-amine] | 41.9% | 319 nM | 61.5% | 5320 nM | 65.9% | 1290 nM |
| COc1c(C)ccc2[nH]cc(CCN(C(C)C)C(C)C)c12 [Example P-63, N-isopropyl-N-(2-(4-methoxy-5-methyl-1H-indol-3-yl)ethyl)propan-2-amine] | 72.7% | 1570 nM | 70.2% | 2250 nM | 49.4% | 9660 nM |
| CCN(C)CCc1c[nH]c2ccc(C)c(O)c12 [Example P-64, 3-(2-(ethyl(methyl)amino)ethyl)-5-methyl-1H-indol-4-ol] | 79% | 62.2 nM | 2.42% | ≥ 10000 nM | 61% | 141 nM |
| CCCN(C)CCc1c[nH]c2ccc(C)c(O)c12 [Example P-65, 5-methyl-3-(2-(methyl(propyl)amino)ethyl)-1H-indol-4-ol] | 78.8% | 56.1 nM | 6.22% | ≥ 10000 nM | 66.3% | 175 nM |
| Cc1ccc2[nH]cc(CCN(C)C(C)C)c2c1O [Example P-66, 3-(2-(isopropyl(methyl)amino)ethyl)-5-methyl-1H-indol-4-ol] | 94.7% | 91.9 nM | 2.07% | ≥ 10000 nM | 50.3% | 391 nM |
| CCN(CC)CCc1c[nH]c2ccc(C)c(O)c12 [Example P-67, 3-(2-(diethylamino)ethyl)-5-methyl-1H-indol-4-ol] | 78.3% | 163 nM | 11.7% | ≥ 10000 nM | 78.2% | 922 nM |
| CCCN(CCC)CCc1c[nH]c2ccc(C)c(O)c12 [Example P-68, 3-(2-(dipropylamino)ethyl)-5-methyl-1H-indol-4-ol] | 102% | 148 nM | 64.3% | ≥ 10000 nM | 78% | 871 nM |
| Cc1ccc2[nH]cc(CCN(C(C)C)C(C)C)c2c1O [Example P-69, 3-(2-(diisopropylamino)ethyl)-5-methyl-1H-indol-4-ol] | 78.8% | 245 nM | 66.9% | ≥ 10000 nM | 70.2% | 3210 nM |
| CCN(C)CCc1c[nH]c2c(C)ccc(OC)c12 [Example P-80, N-ethyl-2-(4-methoxy-7-methyl-1H-indol-3-yl)-N-methylethan-1-amine] | 30% | 113 nM | 0.74% | > 10000 nM | 66.7% | 140 nM |
| COc1ccc(C)c2[nH]cc(CCN(C)C(C)C)c12 [Example P-81, N-(2-(4-methoxy-7-methyl-1H-indol-3-yl)ethyl)-N-methylpropan-2-amine] | 41.4% | 126 nM | 0.59% | > 10000 nM | 38.8% | 764 nM |
| CCN(CC)CCc1c[nH]c2c(C)ccc(OC)c12 [Example P-82, N,N-diethyl-2-(4-methoxy-7-methyl-1H-indol-3-yl)ethan-1-amine] | 42.4% | 283 nM | 0.89% | > 10000 nM | 76.7% | 417 nM |
| COc1ccc(C)c2[nH]cc(CCN(C(C)C)C(C)C)c12 [Example P-83, N-isopropyl-N-(2-(4-methoxy-7-methyl-1H-indol-3-yl)ethyl)propan-2-amine] | 79.2% | 619 nM | 30% | > 10000 nM | 66.7% | 1620 nM |
| CCN(C)CCc1c[nH]c2c(C)ccc(O)c12 [Example P-85, 3-(2-(ethyl(methyl)amino)ethyl)-7-methyl-1H-indol-4-ol] | 52% |  | 0.13% |  | 26.9% |  |
| CCCN(C)CCc1c[nH]c2c(C)ccc(O)c12 [Example P-86, 7-methyl-3-(2-(methyl(propyl)amino)ethyl)-1H-indol-4-ol] | 66.9% | 110 nM | -0.14% | ≥ 10000 nM | 10% | > 10000 nM |
| Cc1ccc(O)c2c(CCN(C)C(C)C)c[nH]c12 [Example P-87, 3-(2-(isopropyl(methyl)amino)ethyl)-7-methyl-1H-indol-4-ol] | 62.4% | 113 nM | -0.38% | ≥ 10000 nM | 4.33% | > 10000 nM |
| CCN(CC)CCc1c[nH]c2c(C)ccc(O)c12 [Example P-88, 3-(2-(diethylamino)ethyl)-7-methyl-1H-indol-4-ol] | 61.1% | 189 nM | -0.07% | ≥ 10000 nM | 25.4% | 1300 nM |
| CCCN(CCC)CCc1c[nH]c2c(C)ccc(O)c12 [Example P-89, 3-(2-(dipropylamino)ethyl)-7-methyl-1H-indol-4-ol] | 118% | 48.6 nM | 6.63% | ≥ 10000 nM | 54.7% | 889 nM |
| Cc1ccc(O)c2c(CCN(C(C)C)C(C)C)c[nH]c12 [Example P-90, 3-(2-(diisopropylamino)ethyl)-7-methyl-1H-indol-4-ol] | 95.1% | 817 nM | 15.7% | ≥ 10000 nM | 50.2% | 9970 nM |
| COc1c(F)ccc2[nH]cc(CCN(C)C)c12 [Example P-91, 2-(5-fluoro-4-methoxy-1H-indol-3-yl)-N,N-dimethylethan-1-amine] | 74.9% | 2.33 nM | 4.57% | > 10000 nM | 109% | 1.24 nM |
| CCN(C)CCc1c[nH]c2ccc(F)c(OC)c12 [Example P-92, N-ethyl-2-(5-fluoro-4-methoxy-1H-indol-3-yl)-N-methylethan-1-amine] | 78% | 7.33 nM | 25.1% | > 10000 nM | 75.3% | 17.9 nM |
| COc1c(F)ccc2[nH]cc(CCN(C)C(C)C)c12 [Example P-93, N-(2-(5-fluoro-4-methoxy-1H-indol-3-yl)ethyl)-N-methylpropan-2-amine] | 95.3% | 7.25 nM | 51.5% | 24.8 nM | 85.1% | 45.2 nM |
| CCN(CC)CCc1c[nH]c2ccc(F)c(OC)c12 [Example P-94, N,N-diethyl-2-(5-fluoro-4-methoxy-1H-indol-3-yl)ethan-1-amine] | 98.1% | 11.2 nM | 47.4% | 94.2 nM | 58% | 131 nM |
